# Data from US4952580A, “Pesticidal polyhaloalkene derivatives” (priority 1988, dated 1990).
# Like-named read-outs stand apart in the source and are kept apart here.
# Columns and labels:
# [1] = test system: root-knot nematode; experiment: Systemic Activity (basipetal, foliar spray) against root-knot nematode; format: in vivo, Meloidogyne incognita; settings: 336 h, read-out: Percent Control; for pest or weed control at 2000 ppm: Table 8, rate 2000 ppm
# How it was run: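 Tomato plants at 4-6 true leaves were foliar-sprayed with compound in water/acetone, soil covered, then kept 3 days at 25° C before soil inoculation with nematodes. After about two weeks, root galling versus untreated controls was scored as Knot Index and Percent Control.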
# [2] = test system: root-knot nematode; experiment: Residual Root-Knot Nematicidal Activity; format: in vivo, Meloidogyne incognita; settings: Table 3a, 5% dust, 5 ppm, read-out: Percent Control
# How it was run: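 Soil received 5% dust formulation at 5 and 10 ppm test compound and was held in a greenhouse, then infested with root-knot nematode eggs and larvae at 1, 2 and 4 weeks post-treatment. Cucumber or tomato seedlings were planted and scored about two weeks after infestation for Knot Index and Percent Control.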
# [3] = test system: cucumber or tomato seedling; experiment: Phytotoxicity noted in Soil Mobility test; format: in vivo; set-up: key: *: Some phytotoxicity; settings: Table 7a, 5% dust, 5 ppm
# Description: The ability of nematicidal compounds of the invention to move through nematode-infested soil […] infested soil, and subsequently eluting the soil with 15 cm of water (equivalent to 15 cm of rainfall) into a series of two or more pots of untreated, but nematode-infested, soil. Specifically, the pots were 8 cm diameter plastic pots containing a 10 cm^3 layer of sand over a coarse grade filter paper disc. Sufficient soil was placed over the sand to fill the pots, and a second filter paper disc was placed over the soil. Each test compound-treated pot was nested over a series of two or more pots containing untreated, but nematode-infested soil, also containing sand filter paper discs as described for the treated soil pots. Fifteen cm of water was slowly dripped into the top pots and the pots were allowed to drain for 16-18 hours to remove excess water. The top filter of each pot was then removed and the pots were planted with a cucumber or tomato seedling. […] "Knot Index" and "Percent Control" are as defined in the initial root-knot nematode tests above.
# [4] = test system: cyst nematode; experiment: Cyst Nematode Test; format: in vivo; settings: Table 6; rate 5 ppm; read-out: Percent Control
# Description: Compounds of this invention were tested as follows for nematicidal and anthelmintic activity as dust formulations (initial and residual activity) and as acetone/water formulations (systemic activity). The formulations are described above.
# The procedures was substantially the same as described in the stunt nematode test except soybean seedlings were used. "Percent Control" (Table 6 appended) is as defined in the stunt nematode test results.
# [5] = test system: root-knot nematode (Meloidogyne incognita); experiment: Initial Root-Knot Nematicidal Activity; format: in vivo; settings: 336 h, read-out: Percent Control; for pest or weed control at 0.078 ppm: Table 2, Application Rate 0.078 ppm; for pest or weed control at 0.156 ppm: Table 2, Application Rate 0.156 ppm; for pest or weed control at 2.5 ppm: Table 2, Application Rate 2.5 ppm; for pest or weed control at 0.312 ppm: Table 2, Application Rate 0.312 ppm
# How it was run: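 Compound incorporated into Meloidogyne incognita-infested soil at 10 ppm to 0.078 ppm, then planted with tomato or cucumber seedlings. Root galling scored two weeks after planting as a knot index and converted to percent control, given as averages.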
# [6] = test system: stunt nematode; experiment: Stunt Nematode Test; format: in vivo
# [7] = test system: lesion nematode; experiment: Lesion Nematode Test; format: in vivo; settings: read-out: Percent Control
# How it was run: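 Run as the stunt nematode test but on pea seedlings; compounds applied as dust formulations (initial and residual activity) or acetone/water formulations (systemic activity), with untreated samples as reference. Percent control derived by formula.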
# [8] = test system: root-knot nematode; experiment: Soil Mobility against root-knot nematode; format: in vivo, Meloidogyne incognita; settings: 336 h, Table 7a, 5% dust, 5 ppm, read-out: Percent Control
# How it was run: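 Soil mobility of the nematicidal test material was evaluated by placing treated, nematode-infested soil in 8 cm plastic pots stacked above two or more pots of untreated infested soil, each containing a 10 cm^3 sand layer and filter paper discs. Fifteen cm of water was dripped through, pots drained 16-18 hours, then were planted with cucumber or tomato seedlings and scored for Percent Control.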
# [9] = test system: corn seedling; experiment: Phytotoxicity noted in Stunt Nematode Test; format: in vivo; set-up: key: *: Some phytotoxicity; settings: Table 4a; rate 5 ppm
# Description: The procedure was substantially the same as in the initial root-knot nematode tests described above except that rates of application of formulated compound were 2.5 and 5 ppm in soil containing a corn seedling, with subsequent inoculation of the soil with combined larvae and adult stunt nematodes. The samples were evaulated approximately four weeks after infestation. The results (Tables 4 and 4a appended) indicate good control at the test application rates as compared with untreated samples where no control was observed. "Percent control" means the difference between average population counts between untreated and treated samples, divided by average population count of untreated sample, multiplied by 100.
# [10] = test system: Caenorhabditis elegans; experiment: C. Elegans Nematode Screening Test and Evaluation (in-vitro); settings: Caenorhabditis elegans
# How it was run: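 Worms (10-15 per well) in buffer with E. coli food, ampicillin and mycostatin; compound added in DMSO, 2-3 replicates per rate. Incubated 5-6 days at 20° C. Population development scored against untreated wells, noting effects such as reduced egg hatch or molting disruption.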
# [11] = 168 h, inoculation 1 week post-treatment
# [12] = 336 h, inoculation 2 weeks post-treatment
# [13] = 672 h, inoculation 4 weeks post-treatment
# [14] = Table 2, Application Rate 0.625 ppm
# [15] = Table 2, Application Rate 1.25 ppm
# [16] = 672 h, Table 4a; rate 5 ppm; read-out: Percent Control
Structure (SMILES),"pest or weed control at 5 ppm [2, 11] [%]","pest or weed control at 5 ppm [2, 12] [%]","pest or weed control at 5 ppm [2, 13] [%]",Some phytotoxicity ([3]; TOP container),pest or weed control at 5 ppm [4] [%],pest or weed control at 0.078 ppm [5] [%],pest or weed control at 0.156 ppm [5] [%],"pest or weed control at 0.625 ppm [5, 14] [%]","pest or weed control at 1.25 ppm [5, 15] [%]",pest or weed control at 2.5 ppm [5] [%],"pest or weed control at 5 ppm [6, 16] [%]","pest or weed control at 2.5 ppm ([7]; Table 5, rate 2.5 ppm) [%]",pest or weed control at 5 ppm ([8]; BOTTOM container) [%],pest or weed control at 5 ppm ([8]; MIDDLE container) [%],pest or weed control at 5 ppm ([8]; TOP container) [%],pest or weed control at 0.312 ppm [5] [%],also measured
"CCCc1nnc(SCCC(F)=C(F)F)o1 [Compound 41, 2-propyl-5-(3,4,4-trifluoro-3-butenylthio)-1,3,4-oxadiazole]",97,63,6,*,0,31,84,98,100,100,29,64,8,95,97,,pest or weed control at 2000 ppm [1]: 17%; Some phytotoxicity ([3]; MIDDLE container): *
"FC(F)=C(F)CCSc1nnc(Cc2ccccc2)o1 [Compound 42, 2-phenylmethyl-5-(3,4,4-trifluoro-3-butenylthio)-1,3,4-oxadiazole]",99,97,0,,30,38,50,98,98,100,76,82,100,100,100,86,pest or weed control at 5 ppm ([6]; 672 h; Table 4a; rate 5 ppm; read-out: Percent Control): 33%; Some phytotoxicity [9]: *; pest or weed control at 2.5 ppm [7]: 73%
"FC(F)=C(F)CCSc1nnc(-c2cccc(Cl)c2)o1 [Compound 48, 2-(3-chlorophenyl)-5-(3,4,4-trifluoro-3-butenylthio)-1,3,4-oxadiazole]",97,97,69,*,86,6,38,78,,98,82,85,,,,64,"pest or weed control at 2500 ppm ([1]; Table 8, rate 2500 ppm): 33%; pest or weed control at 2000 ppm ([1]; foliar): 50%; pest or weed control at 0.625 ppm [5]: 87%; pest or weed control at 1.25 ppm [5]: 95%; inhibition at 5 ppm ([10]; Table 9 screen, 5 ppm, read-out: Percent Inhibition of Reproduction): 100%; mortality at 5 ppm ([10]; Table 9 screen, 5 ppm, read-out: Percent Mortality): 88%; mortality at 5 ppm ([10]; Table 10 evaluation, 5 ppm, read-out: Percent Mortality): 100%; inhibition at 1.25 ppm ([10]; Table 10 evaluation, 1.25 ppm, read-out: Percent Inhibition of Reproduction): 17%; mortality at 1.25 ppm ([10]; Table 10 evaluation, 1.25 ppm, read-out: Percent Mortality): 0%; inhibition at 2.5 ppm ([10]; Table 10 evaluation, 2.5 ppm, read-out: Percent Inhibition of Reproduction): 25%; mortality at 2.5 ppm ([10]; Table 10 evaluation, 2.5 ppm, read-out: Percent Mortality): 0%"
